Experimental findings from patent publication US20230219912A1, “HALOGENATED BENZOTHIADIAZINES FOR THE TREATMENT OF CANCER” (BOARD OF REGENTS OF THE UNIVERSITY OF NEBRASKA, priority 2020, published 2023) are described below.

The subject of test [1] is VEGF-induced proliferation of HUVEC cells. Nature of the test: VEGF-induced HUVEC proliferation, MTT assay. It is filed as cell-based, human. The following applies: for inhibition of VEGF-induced HUVEC proliferation (in words): 20 μM; for inhibition at 20 µM: Homo sapiens, read-out: % Inhibition of Proliferation. As to the method: The assay was performed as follows. Vascular endothelial growth factor (VEGF, Cat #SRP3182) was purchased from Sigma. […] Stock solutions of all compounds were prepared in DMSO and were serially diluted for cell culture treatment maintaining the final DMSO concentration at less than 1%. Cell proliferation of HUVECs was evaluated through the MTT (3-[4, 5-dimethylthiazol-2-yl]-2, 5-dimethyltetrazolium bromide) colorimetric assay, as previously described.^28 The HUVECs were seeded at a density of 10,000 cells/well in 24 well plates in serum-containing medium and cultured overnight. Cells were starved with 300 μL of assay media (0.1% BSA+0.1% FBS in basal medium) for 24 h. Then, cells were treated with 500 μL of assay medium (control group), VEGF (10 ng/mL, positive control group) or VEGF along with compounds (20 μM). After 48 h of culture, 50 μL of MTT stock (5 mg/mL in PBS) was added to each well and incubated for 2 h at 37° C. to allow the formation of dark blue formazan crystals in the metabolically active cells. The medium was removed, the cells were washed with PBS (pH 7.4), and 100 μL of acidified isopropanol (0.33 mL HCl in 100 mL isopropanol) was added to each well and incubated for 5 min with thorough agitation to solubilize the formazan crystals. An equal volume of the solution was transferred to a 96-well plate and the absorbance was immediately measured using a microplate reader at a wavelength of 570 nm.

For test [2], the system named is MDA-MB-468 triple negative breast cancer cells. Nature of the test: MTS cytotoxicity assay in MDA-MB-468 triple negative breast cancer cells. In kind it is cell-based. The following applies: for effect on MDA-MB 468 TNBC cell viability: 10, 50 and 100 μM for 24, 48 and 72 hours, MTS; for IC50: Homo sapiens, MDA-MB-468, 72 hours, mean ± SD n = 3. On the procedure: The assay was performed as follows.
Derivatives were dosed at 10, 50 and 100 μM for 24, 48 and 72 hours and cell viability measured by MTS assay (FIG. 5).
Background: Formazan colour is commonly taken as a measure of viable cells.

Test [3] relates to 22Rv1 prostate cancer cells. Put plainly: MTS cytotoxicity assay in 22Rv1 prostate cancer cells. The following applies: for cytotoxicity at 100 µM: Homo sapiens, 22Rv1, 48 h, read-out: reduction of 22Rv1 cell viability; for reduction of 22Rv1 cell viability: 100 μM, 48 hrs treatment, MTS. On the procedure: The assay was performed as follows. To determine the cell growth inhibition ability of the synthesized compounds the (3-(4,5-dimethylthiazol-2-yl)-5-(3-carboxymethoxyphenyl)-2-(4-sulfophenyl)-2H-tetrazolium) (MTS) assay used according to the manufacturer's recommended protocol. Stock solutions of the synthesized compounds were prepared in DMSO. Cells were seeded at a density of 1×10^5 cells in 96-well plates. After 24 hours, cells were treated at the indicated concentrations of test compounds, limiting the final DMSO concentration to less than 1%. After incubation at 37° C. in an environment of 5% CO2 for 48-72 hours, 10 μL of MTS reagent (CellTiter 96© AQueous One Solution Reagent) was added to each well and incubated at the above mentioned conditions for 2-4 hr. Absorbance was recorded at 490 nm on a BioTek Synergy Mx multimode plate reader and the viability of cells were plotted as percentage of controls.

Test [4] concerns the target T1, Mitochondrial respiratory complex II (Rattus norvegicus, UniProt P21913+Q641Z9+Q6PCT8+Q920L2).
T1 construct: measured spectrophotometrically using isolated rat heart mitochondria; from tissue; host or cells: rat heart mitochondria / sub-mitochondrial particles
Nature of the test: Mitochondrial respiratory complex II inhibition assay. In kind it is biochemical. The conditions noted are these: for inhibition at 100 µM: read-out: inhibition of CII; for IC50: isolated rat heart mitochondria, mean ±SD of n = 4, read-out: CII IC50. On the procedure: The assay was performed as follows. Mitochondria were isolated either from fresh rat hearts or by differential centrifugation in sucrose-based buffer as previously described.^24 Complex II enzymatic activity was determined spectrophotometrically as the rate of succinate-driven, co-enzyme Q2-linked reduction of dichlorophenolindophenol (DCPIP).^49 Mitochondria or sub-mitochondrial particles were incubated in phosphate buffer (pH 7.4) containing 40 μM DCPIP, 1 mM KCN, 10 μM rotenone, and 50 μM co-enzyme Q2. The rate of reduction of DCPIP to DCPIPH2 was followed at […] (ε=21,000 M-1). Varying amounts of succinate and inhibitors were used to determine an IC50 value. At the end of each run thenoyltrifluoroacetone (1 mM) was added and the residual TTFA-insensitive rate subtracted.

[5] abbreviates: HUVEC, 48 h, 20 μM compound, VEGF 10 ng/mL, HUVEC, 48 h, relative to VEGF treated cells, mean ± SEM n = 3.
Setting [6] is: 100 μM, relative to DMSO control.

Entries after “also recorded” stand apart in the source; their conditions may differ. Where two headings read alike, the source gives them in different places.

T1 sequence (Q920L2 35-656): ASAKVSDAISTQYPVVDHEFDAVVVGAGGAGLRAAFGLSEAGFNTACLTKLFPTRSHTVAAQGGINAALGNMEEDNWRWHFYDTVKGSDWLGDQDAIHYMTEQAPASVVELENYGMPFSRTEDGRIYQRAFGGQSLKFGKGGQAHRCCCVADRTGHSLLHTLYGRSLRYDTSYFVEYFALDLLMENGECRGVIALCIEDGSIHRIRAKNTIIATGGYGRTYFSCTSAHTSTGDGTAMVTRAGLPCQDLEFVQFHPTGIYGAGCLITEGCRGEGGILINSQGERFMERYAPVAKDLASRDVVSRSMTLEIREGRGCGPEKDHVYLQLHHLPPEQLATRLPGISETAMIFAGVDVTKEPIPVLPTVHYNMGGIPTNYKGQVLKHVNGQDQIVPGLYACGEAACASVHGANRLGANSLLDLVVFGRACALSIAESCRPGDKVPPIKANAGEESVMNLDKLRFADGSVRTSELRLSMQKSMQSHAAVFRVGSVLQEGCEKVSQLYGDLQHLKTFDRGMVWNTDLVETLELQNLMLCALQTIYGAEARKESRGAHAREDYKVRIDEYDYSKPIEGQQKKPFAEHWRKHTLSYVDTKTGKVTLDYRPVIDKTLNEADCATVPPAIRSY
T1 sequence (P21913 31-282): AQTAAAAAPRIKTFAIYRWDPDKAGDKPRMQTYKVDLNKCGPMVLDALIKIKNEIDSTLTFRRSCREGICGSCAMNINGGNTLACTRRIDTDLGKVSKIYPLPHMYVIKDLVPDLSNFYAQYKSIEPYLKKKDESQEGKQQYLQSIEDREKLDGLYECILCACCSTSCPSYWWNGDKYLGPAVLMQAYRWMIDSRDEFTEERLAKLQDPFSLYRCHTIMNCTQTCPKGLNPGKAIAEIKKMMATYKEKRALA
T1 sequence (Q641Z9 1-169): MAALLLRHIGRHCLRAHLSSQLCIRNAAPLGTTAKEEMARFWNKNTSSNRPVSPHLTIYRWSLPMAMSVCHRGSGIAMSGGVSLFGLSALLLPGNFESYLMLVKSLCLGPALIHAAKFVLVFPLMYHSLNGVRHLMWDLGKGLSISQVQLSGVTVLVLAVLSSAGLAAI
T1 sequence (Q6PCT8 57-159): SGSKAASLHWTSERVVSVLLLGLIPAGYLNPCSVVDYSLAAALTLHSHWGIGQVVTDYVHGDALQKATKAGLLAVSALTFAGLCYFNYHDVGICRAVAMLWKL

With `O=S1(=O)NC(=S)Nc2ccc(F)cc21` [Compound 12a, 7-fluoro-3-thioxo-3,4-dihydro-2H-1,2,4-benzothiadiazine 1,1-dioxide], in test [1] (VEGF 10 ng/mL), the “inhibition of VEGF-induced HUVEC proliferation (in words)” value (shortened to “inhibition … (in words)”) is on record as “no appreciable inhibition”. For the same compound, the inhibition at 20 µM in test [1] (setting [5]) turned out to be 50 ± 35%. Also, in test [2], the “effect on MDA-MB 468 TNBC cell viability” value is listed as “no reduction of cell viability”.

By IC50 is commonly meant the concentration that gives 50% inhibition. As for `O=S1(=O)NC(=S)Nc2cc(Cl)ccc21` [Compound 12b, 6-chloro-3-thioxo-3,4-dihydro-2H-1,2,4-benzothiadiazine 1,1-dioxide], the inhibition at 20 µM in test [1] (setting [5]) was found to be 0%. Besides, the cytotoxicity at 100 µM in test [3] is 12%. For the same compound, in test [4] (setting [6]), the inhibition at 100 µM came to 81%. The half-inhibitory concentration (IC50) in test [4] was determined as 11.9 µM.

On to `O=S1(=O)NC(=S)Nc2ccc(Br)cc21` [Compound 12c, 7-bromo-3-thioxo-3,4-dihydro-2H-1,2,4-benzothiadiazine 1,1-dioxide], for which, in test [3], the cytotoxicity at 100 µM worked out at 16%. Moreover, the inhibition at 100 µM in test [4] (setting [6]) came out at 55%. In test [4], the IC50 was 37 µM.

For the compound `CC(C)C(C)NC1=NS(=O)(=O)c2cc(F)ccc2N1` (stereo not shown) [Compound 15a, 7-fluoro-3-((3-methylbutan-2-yl)amino)-4H-benzo[e][1,2,4]thiadiazine 1,1-dioxide], the “inhibition … (in words)” value in test [1] (VEGF 10 ng/mL) is given as “no appreciable inhibition”. Further, in test [1] (setting [5]), the inhibition at 20 µM came out at 76 ± 18%. Further, in test [2], the “effect on MDA-MB 468 TNBC cell viability” value is on record as “substantially less active”.

As for `O=S1(=O)N=C(NCc2ccc(Cl)cc2)Nc2ccc(F)cc21` [Compound 16a, 3-((4-chlorobenzyl)amino)-7-fluoro-4H-benzo[e][1,2,4]thiadiazine 1,1-dioxide], the “reduction of 22Rv1 cell viability” value in test [3] is “inactive”.

For the compound `O=S1(=O)N=C(NCCc2ccccc2)Nc2ccc(Br)cc21` [Compound 18c, 7-bromo-3-(phenethylamino)-4H-benzo[e][1,2,4]thiadiazine 1,1-dioxide], the inhibition at 20 µM in test [1] (HUVEC, 48 h) was 47 ± 24%. In test [2], the “effect on MDA-MB 468 TNBC cell viability” value is reported as “potent activity”.

As to `COc1ccc(CNC2=NS(=O)(=O)c3ccccc3N2)cc1` [Compound 20d, 3-((4-methoxybenzyl)amino)-4H-benzo[e][1,2,4]thiadiazine 1,1-dioxide], the “effect on MDA-MB 468 TNBC cell viability” value in test [2] was “no reduction of cell viability”.

Take `O=S1(=O)N=C(NCCCc2ccccc2)Nc2ccc(F)cc21` [Compound 23a, 7-fluoro-3-((3-phenylpropyl)amino)-4H-benzo[e][1,2,4]thiadiazine 1,1-dioxide]: in test [1] (20 μM compound, VEGF 10 ng/mL, HUVEC, 48 h, relative to VEGF treated cells, mean ± SEM n = 3), the “% Inhibition of Proliferation” value was “inactive”. Besides, the “inhibition … (in words)” value in test [1] (VEGF 10 ng/mL) is recorded as “no appreciable inhibition”. The inhibition at 20 µM in test [1] (setting [5]) is 0%. In addition, in test [4] (setting [6]), the inhibition at 100 µM amounted to 14%. Further, the “effect on MDA-MB 468 TNBC cell viability” value in test [2] is given as “almost complete amelioration of cell viability”.

Turning to `O=S1(=O)N=C(NCCCc2ccccc2)Nc2ccc(Br)cc21` [Compound 23c, 7-bromo-3-((3-phenylpropyl)amino)-4H-benzo[e][1,2,4]thiadiazine 1,1-dioxide], the inhibition at 20 µM in test [1] (setting [5]) came out at 24 ± 41%. In addition, the cytotoxicity at 100 µM in test [3] is 42%. Moreover, in test [4] (setting [6]), the “inhibition of CII” value was 47% and the inhibition at 100 µM came to 46%.

For the compound `CC(NC1=NS(=O)(=O)c2cc(F)ccc2N1)c1ccccc1` (stereo not shown) [Compound 24a, 7-fluoro-3-((1-phenylethyl)amino)-4H-benzo[e][1,2,4]thiadiazine 1,1-dioxide], in test [3], the cytotoxicity at 100 µM is 34%. Besides, in test [4] (setting [6]), the inhibition at 100 µM amounted to 22%.

Regarding `CC(NC1=NS(=O)(=O)c2ccc(Cl)cc2N1)c1ccccc1` (stereo not shown) [Compound 24b, 6-chloro-3-((1-phenylethyl)amino)-4H-benzo[e][1,2,4]thiadiazine 1,1-dioxide], the inhibition at 20 µM in test [1] (setting [5]) was 38 ± 33%. In addition, the cytotoxicity at 100 µM in test [3] is 50%. For the same compound, the inhibition at 100 µM in test [4] (setting [6]) was 51%. Moreover, the IC50 in test [4] was 89 µM.

Regarding `CC(NC1=NS(=O)(=O)c2cc(Br)ccc2N1)c1ccccc1` (stereo not shown) [Compound 24c, 7-bromo-3-((1-phenylethyl)amino)-4H-benzo[e][1,2,4]thiadiazine 1,1-dioxide], the cytotoxicity at 100 µM in test [3] stood at 70%. In addition, the inhibition at 100 µM in test [4] (setting [6]) turned out to be 55%. In addition, the IC50 in test [4] was 79.8 µM.

`O=S1(=O)N=C(NCc2ccc(C(F)(F)F)cc2)Nc2cc(Cl)ccc21` [Compound 25b, 6-chloro-3-((4-(trifluoromethyl)benzyl)amino)-4H-benzo[e][1,2,4]thiadiazine 1,1-dioxide]: the inhibition at 20 µM in test [1] (setting [5]) is 1 ± 43%. For the same compound, the inhibition at 100 µM in test [4] (setting [6]) was 19%.

As for `O=S1(=O)N=C(NCc2ccc(C(F)(F)F)cc2)Nc2ccc(Br)cc21` [Compound 25c, 7-bromo-3-((4-(trifluoromethyl)benzyl)amino)-4H-benzo[e][1,2,4]thiadiazine 1,1-dioxide], the cytotoxicity at 100 µM in test [3] is 34%.

Consider `O=S1(=O)N=C(NCc2ccc(OC(F)(F)F)cc2)Nc2ccccc21` [Compound 30d, 3-((4-(trifluoromethoxy)benzyl)amino)-4H-benzo[e][1,2,4]thiadiazine 1,1-dioxide], for which, in test [3], the cytotoxicity at 100 µM is roughly 30%.

Turning to `C=CCNC1=NS(=O)(=O)c2cc(F)ccc2N1` [Compound 32a, 3-(allylamino)-7-fluoro-4H-benzo[e][1,2,4]thiadiazine 1,1-dioxide], in test [3], the cytotoxicity at 100 µM worked out at 24%. Further, the inhibition at 100 µM in test [4] (setting [6]) came out at 38%.

Consider `O=S1(=O)N=C(NCCc2c[nH]c3ccccc23)Nc2cc(Cl)ccc21` [Compound 36b, 3-((2-(1H-indol-3-yl)ethyl)amino)-6-chloro-4H-benzo[e][1,2,4]thiadiazine 1,1-dioxide], for which, in test [1] (setting [5]), the inhibition at 20 µM was 24 ± 38%. Also, the inhibition at 100 µM in test [4] (setting [6]) stood at 25%.

`O=S1(=O)N=C(NCCc2ccc(Cl)cc2)Nc2ccc(F)cc21` [Compound 37a, 3-((4-chlorophenethyl)amino)-7-fluoro-4H-benzo[e][1,2,4]thiadiazine 1,1-dioxide]: in test [3], the “reduction of 22Rv1 cell viability” value is “inactive”. Moreover, the inhibition at 100 µM in test [4] (setting [6]) was found to be 34%.

`CC(C)NC1=NS(=O)(=O)c2ccccc2N1C` [Compound 43d, 3-(isopropylamino)-4-methyl-4H-benzo[e][1,2,4]thiadiazine 1,1-dioxide]: the “effect on MDA-MB 468 TNBC cell viability” value in test [2] was “no reduction of cell viability”.

Regarding `COc1ccc(CNC2=NS(=O)(=O)c3cc(Cl)ccc3N2)cc1` [Compound 56e, 7-Chloro-3-((4-methoxybenzyl)amino)-4H-benzo[e][1,2,4]thiadiazine 1,1-dioxide], in test [1] (VEGF 10 ng/mL), the “inhibition … (in words)” value is “suppressed HUVEC proliferation; also recorded: enhanced activity”. Also, in test [1] (setting [5]), the inhibition at 20 µM was found to be 91 ± 15%. This compound also returned a half-maximal inhibitory concentration (IC50) in test [2] of 62.9 ± 4.2 µM.

Turning to `Cc1ccc(CNC2=NS(=O)(=O)c3cc(Cl)ccc3N2)cc1` [Compound 61e, 7-Chloro-3-((4-methylbenzyl)amino)-4H-benzo[e][1,2,4]thiadiazine 1,1-dioxide], the “inhibition … (in words)” value in test [1] (VEGF 10 ng/mL) is “suppressed HUVEC proliferation; also recorded: enhanced activity”. Also, the inhibition at 20 µM in test [1] (setting [5]) was 119 ± 10%. This compound also came in with an IC50 in test [2] of 43.1 µM.
